US20160304957A1, “TREATMENT AND MODULATION OF GENE EXPRESSION AND SKIN AGING” (DSM NUTRITIONAL PRODUCTS LTD., priority 2006, published 2016)

How the values were obtained:
Experiment in all cases: QRT-PCR gene expression in HaCaT cells with or without UVA
Assay type in all cases: cell-based, human
RXRα = system: RXRα
Method: (§1) HaCaT cells were obtained from Prof. Fusenig, German Cancer Research Centre, Heidelberg. […] The accuracy of cell counting was approximately 99%.
(§2) On day 3 of the experiment, cells were washed six times with Ca/Mg-free PBS containing 2% BSA, and then irradiated with light with a Hönle sun lamp Sol 500 (Dr. Hönle, Plannegg, Germany) at a dose of 270 kJ/m^2 in Ca/Mg-free PBS (2 hour exposure time at […]). The experimental schedule was chosen because the cells had optimal UVA sensitivity after 48 hours in culture. […] Confluent cultures were much less sensitive to irradiation.
(§3) After irradiation, the cells were supplied with fresh β-carotene-containing serum-free medium and kept in the incubator at 37° C., 5% CO2 until harvest of the samples. In experiments in which the half-life of ^1O2 was prolonged by D2O to enhance its effect, PBS was prepared in D2O, instead of in H2O, as it was done for the standard conditions described above. Cells were washed twice in D2O-PBS prior to irradiation in D2O-PBS. After irradiation, cells were maintained with fresh β-carotene-containing serum-free medium. Sham controls were treated in an identical manner, by placing them under the solar simulator but shielded from light.
(§4) Total RNA was isolated by using Trizol™ (Invitrogen, Basel, Switzerland) according to the instructions of the manufacturer. Random-primed cDNA was synthesized using the Superscript pre-amplification system for first strand cDNA synthesis (Invitrogen).
(§5) cDNA corresponding to 10 ng total RNA was used as template to quantify the relative RNA expression of the genes of interest by TaqMan® real time PCR.
(§6) The PCR analyses were carried out in triplicate and in a multiplex setup, using 18S rRNA as a calibrator gene. The rRNA primers were used at a final concentration of 50 nM, the probe at 100 nM. For quantification of the genes of interest, the primer concentrations were optimized for sensitivity of template detection. […] PCR reactions were carried out for 40 cycles of 95° C. for 15 seconds and 60° C. for 1 minute in an ABI7700 (Applied Biosystems, Rotkreuz, Switzerland). Regulation of gene expression was calculated as described in user bulletin #2 provided by the manufacturer. A threshold cycle (“CT”) is the first PCR cycle in which an amplification signal is detected. Expression levels are given as δCT values. The δCT value describes the level of gene expression as the average PCR cycle, in which the gene of interest was detected first (CT value), subtracted by the CT value of the calibrator gene 18S rRNA (CTgene of interest−CTcalibrating gene), 18S rRNA served as a measure for the amount of template in the reaction. Routinely, 18S rRNA was detected between PCR cycle 12 and 13 (SE=standard error) A low δCT corresponds to a high mRNA level.
(§7) HaCaT cells were pretreated for 2 days with 0.5, 1.5 or 3 μM β-carotene. The cells were irradiated with UVA (270 kJ/m^2) either in D2O-containing PBS or in H2O-containing PBS, to analyze ^1O2 inducibility of genes. Gene expression 5 hours after UVA irradiation was analyzed by QRT-PCR. Values are geometric means±standard error from three independent experiments. Upregulations greater than 1.5-fold are labelled in bold black, downregulations below 0.66-fold are bold grey.

[1] = system: β-Carotene-15,15′-oxygenase
Method: as §1, §2, §3, §4, §5, §6, §7

RXRβ = system: RXRβ
Method: as §1, §2, §3, §4, §5, §6, §7

RARβ = system: RARβ
Method: as §1, §2, §3, §4, §5, §6, §7

RXRγ = system: RXRγ
Method: as §1, §2, §3, §4, §5, §6, §7

MMP-2 = system: MMP-2
Method: as §1, §2, §3, §4, §5, §6

MMP-3 = system: MMP-3
Method: as §1, §2, §3, §4, §5, §6

MMP-1 = system: MMP-1
Method: as §1, §2, §3, §4, §5, §6

MMP-9 = system: MMP-9
Method: as §1, §2, §3, §4, §5, §6

MMP-10 = system: MMP-10
Method: as §1, §2, §3, §4, §5, §6

[2] = β-carotene 1.5 μM, with or without UVA

CC1=C(/C=C/C(C)=C/C=C/C(C)=C/C=C/C=C(C)/C=C/C=C(C)/C=C/C2=C(C)CCCC2(C)C)C(C)(C)CCC1 [β-carotene, All-E-β-carotene]
basal or UVA-regulated expression level of RXRα (RXRα): no significant effect | RXRα fold induction (RXRα; D2O, UVA/βC 0.5 μM): 0.68 fold | RXRα fold induction (RXRα; D2O, UVA/βC 1.5 μM): 0.31 fold | RXRα fold induction (RXRα; D2O, UVA/βC 3 μM): 0.38 fold | RXRα fold induction (RXRα; D2O, βC 0.5 μM): 1.25 fold | RXRα fold induction (RXRα; D2O, βC 1.5 μM): 0.82 fold | RXRα fold induction (RXRα; D2O, βC 3 μM): 1.06 fold | RXRα fold induction (RXRα; H2O, UVA/βC 0.5 μM): 0.96 fold | RXRα fold induction (RXRα; H2O, UVA/βC 1.5 μM): 0.27 fold | RXRα fold induction (RXRα; H2O, UVA/βC 3 μM): 0.58 fold | RXRα fold induction (RXRα; H2O, βC 0.5 μM): 0.89 fold | RXRα fold induction (RXRα; H2O, βC 1.5 μM): 0.98 fold | RXRα fold induction (RXRα; H2O, βC 3 μM): 1.13 fold | βC-15,15′-oxygenase fold induction ([1]; D2O, UVA/βC 0.5 μM): 1.08 fold | βC-15,15′-oxygenase fold induction ([1]; D2O, UVA/βC 1.5 μM): 0.90 fold | βC-15,15′-oxygenase fold induction ([1]; D2O, UVA/βC 3 μM): 0.91 fold | βC-15,15′-oxygenase fold induction ([1]; D2O, βC 0.5 μM): 1.19 fold | βC-15,15′-oxygenase fold induction ([1]; D2O, βC 1.5 μM): 1.03 fold | βC-15,15′-oxygenase fold induction ([1]; D2O, βC 3 μM): 0.43 fold | βC-15,15′-oxygenase fold induction ([1]; H2O, UVA/βC 0.5 μM): 0.60 fold | βC-15,15′-oxygenase fold induction ([1]; H2O, UVA/βC 1.5 μM): 0.84 fold | βC-15,15′-oxygenase fold induction ([1]; H2O, UVA/βC 3 μM): 0.91 fold | βC-15,15′-oxygenase fold induction ([1]; H2O, βC 0.5 μM): 1.09 fold | βC-15,15′-oxygenase fold induction ([1]; H2O, βC 1.5 μM): 1.19 fold | βC-15,15′-oxygenase fold induction ([1]; H2O, βC 3 μM): 1.08 fold | β-Carotene-15,15′-oxygenase RNA level ([1]; β-carotene, UVA, D2O treatments): not significantly influenced | basal or UVA-regulated expression level of RXRβ (RXRβ): no significant effect | RXRβ fold induction (RXRβ; D2O, UVA/βC 0.5 μM): 1.23 fold | RXRβ fold induction (RXRβ; D2O, UVA/βC 1.5 μM): 1.09 fold | RXRβ fold induction (RXRβ; D2O, UVA/βC 3 μM): 0.76 fold | RXRβ fold induction (RXRβ; D2O, βC 0.5 μM): 1.32 fold | RXRβ fold induction (RXRβ; D2O, βC 1.5 μM): 1.17 fold | RXRβ fold induction (RXRβ; D2O, βC 3 μM): 1.61 fold | RXRβ fold induction (RXRβ; H2O, UVA/βC 0.5 μM): 0.93 fold | RXRβ fold induction (RXRβ; H2O, UVA/βC 1.5 μM): 0.71 fold | RXRβ fold induction (RXRβ; H2O, UVA/βC 3 μM): 1.04 fold | RXRβ fold induction (RXRβ; H2O, βC 0.5 μM): 0.67 fold | RXRβ fold induction (RXRβ; H2O, βC 1.5 μM): 0.99 fold | RXRβ fold induction (RXRβ; H2O, βC 3 μM): 0.99 fold | basal or UVA-regulated expression level of RARβ (RARβ): no significant effect | RARβ fold induction (RARβ; D2O, UVA/βC 0.5 μM): 2.49 fold | RARβ fold induction (RARβ; D2O, UVA/βC 1.5 μM): 1.69 fold | RARβ fold induction (RARβ; D2O, UVA/βC 3 μM): 2.35 fold | RARβ fold induction (RARβ; D2O, βC 0.5 μM): 1.25 fold | RARβ fold induction (RARβ; D2O, βC 1.5 μM): 2.46 fold | RARβ fold induction (RARβ; D2O, βC 3 μM): 2.79 fold | RARβ fold induction (RARβ; H2O, UVA/βC 0.5 μM): 0.44 fold | RARβ fold induction (RARβ; H2O, UVA/βC 1.5 μM): 0.90 fold | RARβ fold induction (RARβ; H2O, UVA/βC 3 μM): 0.86 fold | RARβ fold induction (RARβ; H2O, βC 0.5 μM): 0.81 fold | RARβ fold induction (RARβ; H2O, βC 1.5 μM): 1.20 fold | RARβ fold induction (RARβ; H2O, βC 3 μM): 1.84 fold | RARβ induction, dose-dependent (RARβ; predominantly in unirradiated cells): non-significantly induced | basal or UVA-regulated expression level of RXRγ (RXRγ): no significant effect | RXRγ fold induction (RXRγ; D2O, UVA/βC 0.5 μM): 1.72 fold | RXRγ fold induction (RXRγ; D2O, UVA/βC 1.5 μM): 2.70 fold | RXRγ fold induction (RXRγ; D2O, UVA/βC 3 μM): 1.57 fold | RXRγ fold induction (RXRγ; D2O, βC 0.5 μM): 1.47 fold | RXRγ fold induction (RXRγ; D2O, βC 1.5 μM): 2.78 fold | RXRγ fold induction (RXRγ; D2O, βC 3 μM): 2.57 fold | RXRγ fold induction (RXRγ; H2O, UVA/βC 0.5 μM): 0.61 fold | RXRγ fold induction (RXRγ; H2O, UVA/βC 1.5 μM): 0.08 fold | RXRγ fold induction (RXRγ; H2O, UVA/βC 3 μM): 0.67 fold | RXRγ fold induction (RXRγ; H2O, βC 0.5 μM): 0.39 fold | RXRγ fold induction (RXRγ; H2O, βC 1.5 μM): 0.77 fold | RXRγ fold induction (RXRγ; H2O, βC 3 μM): 0.33 fold | MMP-2 expression (MMP-2; UVA/D2O experiments): no significant effect | MMP-2 expression (MMP-2; [2]): did not influence their expression significantly | MMP-3 induction by UVA (MMP-3; presence or absence of D2O): prevented MMP-3 induction | UVA-induction of MMP-3 (MMP-3; β-carotene 1.5 μM, UVA alone approx. 49 fold): 27 fold | basal MMP-1 RNA expression (MMP-1; unirradiated cells): tended to reduce | UVA-induced MMP-1 induction (MMP-1; β-carotene 1.5 μM, 5 hours after UVA, UVA alone 1.3 fold): 0.9 fold | UVA/D2O-induced MMP-1 induction (MMP-1; β-carotene 0.5, 1.5, 3 μM): significantly and dose-dependently reduced | MMP-9 expression (MMP-9; UVA/D2O experiments): no significant effect | MMP-9 expression, tendency (MMP-9; irradiated and unirradiated cells): tended to lower expression | MMP-9 expression (MMP-9; [2]): did not influence their expression significantly | basal MMP-10 expression (MMP-10; unirradiated cells): tended to reduce | UVA induction of MMP-10 (MMP-10; β-carotene 1.5 μM, UVA alone about 3 fold): approx. 2.5 fold | MMP-10 induction by UVA and D2O (MMP-10; β-carotene 0.5, 1.5, 3 μM): opposed MMP-10 induction by UVA and D2O in a dose-dependent fashion
